According to patent publication US8541449B2, “Substituted isoquinolines and isoquinolinones as Rho kinase inhibitors” (Sanofi, priority 2008, dated 2013):

What was measured:
Assay type in all cases: biochemical
[1] = target: T1, human recombinant ROCK II (Homo sapiens, UniProt O75116); assay: Determination of Rho kinase inhibition (Caliper peptide phosphorylation assay); settings: 60 min at 32° C., negative decadal logarithm of the IC50
T1 construct: N-terminal His6-tagged recombinant human ROCK-II residues 11-552; His6 (N); purchased Millipore GmbH, Schwalbach, Germany
Method: Determination of Rho Kinase Inhibition
To measure Rho-kinase inhibition, IC50 values were determined according to the following protocol:
Active human recombinant ROCK II (N-terminal His6-tagged recombinant human ROCK-II residues 11-552) was purchased from Millipore GmbH, Schwalbach, Germany. The peptide substrate, Fluorescein-[…]-COOH, was obtained from JPT Peptide Technologies, Berlin, Germany. Adenosine-5′-triphosphate (ATP), bovine serum albumine (BSA), dimethylsulphoxide (DMSO), 4-(2-Hydroxyethyl)piperazine-1-ethanesulfonic acid (Hepes), Brij-35, dithiothreitol (DTT) and Pluronic F-68 were purchased from Sigma-Aldrich, Munich, Germany. Tris(hydroxymethyl)-aminomethane (Tris), magnesium chloride, NaOH, 1M HCl and EDTA were obtained from Merck Biosciences, Darmstadt, Germany. “Complete” protease inhibitor was from Roche Diagnostics, Mannheim, Germany.
(§1) Test compounds were diluted to the appropriate concentrations in buffer 1 (25 mM Tris-HCl, pH 7.4, 5 mM MgCl2, 2 mM DTT, 0.02% (w/v) BSA, 0.01% Pluronic F-68 and 3% DMSO). The ROCK II enzyme was diluted to a concentration of 100 ng/mL in buffer 2 (25 mM Tris-HCl, pH 7.4, 5 mM MgCl2, 2 mM DTT and 0.02% (w/v) BSA). The peptide substrate and ATP were diluted to concentrations of 3 μM and 120 μM, respectively, in the buffer 2. Two μl of the compound solution were mixed with 2 μl of the diluted enzyme in a 384-well small volume microtiter plate (Greiner, Bio-One, Frickenhausen, Germany), and the kinase reaction was initiated by addition of 2 μl of the solution containing peptide substrate and ATP. After 60 min incubation at 32° C., the reaction was stopped by addition of 20 μl of a solution containing 100 mM Hepes-NaOH, pH 7.4, 0.015% (v/v) Brij-35, 45 mM EDTA and 0.227% chip coating reagent 1 (Caliper Lifescience Inc, Hopkinton, Mass.). Phosphorylation of the substrate peptide was then detected on a Caliper 3000 instrument essentially as described by Pommereau et al (J. Biomol. Screening 9(5), 409-416, 2004). Separation conditions were as follows: Pressure −1.3 psi, upstream voltage −1562 V, downstream voltage −500 V, sample sip time 200 ms. Positive controls (buffer 1 instead of compound) and negative controls (buffer 1 instead of compound and buffer 2 instead of ROCK II) were run in parallel on each plate.
The following products/compounds were tested in said assay by using the respective form (salt or free base) obtained as in the examples described above and the following activities were measured

[2] = target: T2, recombinant human PKG1-beta (Homo sapiens, UniProt Q13976); assay: Determination of Protein Kinase G inhibition (Caliper peptide phosphorylation assay); settings: recombinant human PKG1-beta versus ROCK II
T2 construct: Active recombinant human PKG1-beta (full-length, with N-terminal His-tag); His-tag (N); purchased Millipore GmbH, Schwalbach, Germany
T2 sequence (Q13976 1-686 isoform Q13976-2): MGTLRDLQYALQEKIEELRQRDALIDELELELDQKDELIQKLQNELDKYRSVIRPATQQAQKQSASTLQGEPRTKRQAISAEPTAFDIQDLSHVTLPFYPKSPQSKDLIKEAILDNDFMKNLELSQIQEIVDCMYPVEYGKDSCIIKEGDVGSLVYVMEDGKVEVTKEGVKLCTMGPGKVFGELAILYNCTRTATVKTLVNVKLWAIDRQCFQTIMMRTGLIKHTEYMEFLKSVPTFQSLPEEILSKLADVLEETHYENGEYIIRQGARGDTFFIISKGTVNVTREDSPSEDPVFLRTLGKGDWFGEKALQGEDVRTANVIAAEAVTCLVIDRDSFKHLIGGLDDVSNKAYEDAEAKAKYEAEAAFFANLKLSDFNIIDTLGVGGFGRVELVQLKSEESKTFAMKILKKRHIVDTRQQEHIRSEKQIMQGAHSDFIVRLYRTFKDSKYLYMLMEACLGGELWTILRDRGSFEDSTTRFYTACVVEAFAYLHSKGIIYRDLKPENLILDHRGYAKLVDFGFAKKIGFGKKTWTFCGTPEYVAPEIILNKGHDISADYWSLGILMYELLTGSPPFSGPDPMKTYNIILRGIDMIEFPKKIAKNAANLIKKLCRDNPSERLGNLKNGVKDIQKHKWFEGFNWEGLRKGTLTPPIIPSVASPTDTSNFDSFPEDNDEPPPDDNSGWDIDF
Method: (§2) Determination of Protein Kinase A and Protein Kinase G Inhibition
(§3) To measure PKA and PKG1-beta inhibition, IC50 values were determined according to the following protocol:
(§4) Active recombinant human PKG1-beta (full-length, with N-terminal His-tag) was purchased from Millipore GmbH, Schwalbach, Germany. Active recombinant human PKA (residues 1-351, N-terminal His-tag) was obtained from Invitrogen, Karlsruhe, Germany. The peptide substrate, Fluorescein-[…]-COOH, was obtained from JPT Peptide Technologies, Berlin, Germany. Adenosine-5′-triphosphate (ATP), bovine serum albumine (BSA), dimethylsulphoxide (DMSO), 4-(2-Hydroxyethyl)piperazine-1-ethanesulfonic acid (Hepes), Brij-35, dithiothreitol (DTT) and Pluronic F-68 were purchased from Sigma-Aldrich, Munich, Germany. Tris(hydroxymethyl)-aminomethane (Tris), magnesium chloride, NaOH, 1M HCl and EDTA were obtained from Merck Biosciences, Darmstadt, Germany. “Complete” protease inhibitor was from Roche Diagnostics, Mannheim, Germany.
as §1, with “PKG1-beta and PKA were” for “The ROCK II enzyme was”, “concentrations” for “a concentration”, “150 ng/ml and 30 ng/ml, respectively,” for “100 ng/mL”, “2.” for “2 (25 mM Tris-HCl, pH 7.4, 5 mM MgCl2, 2 mM DTT and 0.02% (w/v) BSA).”, “kinase solution)” for “ROCK II)”, “plate. The following products/compounds were tested in said assay by using the respective form (salt or free base) obtained as in the examples described above and the following activities were measured.” for “plate.”

recombinant human PKA = target: T3, recombinant human PKA (Homo sapiens, UniProt P17612); assay: Determination of Protein Kinase A inhibition (Caliper peptide phosphorylation assay); settings: recombinant human PKA versus ROCK II
T3 construct: Active recombinant human PKA (residues 1-351, N-terminal His-tag); His-tag (N); purchased Invitrogen, Karlsruhe, Germany
Method: as §2, §3, §4
as §1, with “PKG1-beta and PKA were” for “The ROCK II enzyme was”, “concentrations” for “a concentration”, “150 ng/ml and 30 ng/ml, respectively,” for “100 ng/mL”, “2.” for “2 (25 mM Tris-HCl, pH 7.4, 5 mM MgCl2, 2 mM DTT and 0.02% (w/v) BSA).”, “kinase solution)” for “ROCK II)”, “plate. The following products/compounds were tested in said assay by using the respective form (salt or free base) obtained as in the examples described above and the following activities were measured.” for “plate.”

T1 sequence (O75116 11-552): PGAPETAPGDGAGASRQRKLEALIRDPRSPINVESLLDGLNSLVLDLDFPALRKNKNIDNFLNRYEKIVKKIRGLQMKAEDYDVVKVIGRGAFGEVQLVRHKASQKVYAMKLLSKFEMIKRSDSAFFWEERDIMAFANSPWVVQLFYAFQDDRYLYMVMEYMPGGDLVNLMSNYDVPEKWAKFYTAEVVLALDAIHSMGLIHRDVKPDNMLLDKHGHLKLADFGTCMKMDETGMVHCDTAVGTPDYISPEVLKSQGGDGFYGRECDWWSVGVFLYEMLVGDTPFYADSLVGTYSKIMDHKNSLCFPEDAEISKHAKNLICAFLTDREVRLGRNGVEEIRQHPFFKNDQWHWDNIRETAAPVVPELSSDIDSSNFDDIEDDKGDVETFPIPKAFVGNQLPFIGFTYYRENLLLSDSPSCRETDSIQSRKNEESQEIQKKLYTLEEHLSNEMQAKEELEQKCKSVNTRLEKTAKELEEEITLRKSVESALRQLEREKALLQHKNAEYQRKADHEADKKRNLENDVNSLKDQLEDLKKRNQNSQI

Molecule `NC(c1ccccc1)C1CCC(Oc2cc3cc[nH]c(=O)c3cc2Cl)CC1` (single isomer, unassigned) [Example 40, 6-[4-(Amino-phenyl-methyl)-cyclohexyloxy]-7-chloro-2H-isoquinolin-1-one] has an IC50 [1] of 100 to 1000 nM.
`CC(N)(C1CCCC1)C1CCC(Oc2cc3cc[nH]c(=O)c3cc2Cl)CC1` (single isomer, unassigned) [Example 118, 6-{4-[1-Amino-1-cyclopentyl-ethyl]-cyclohexyl-oxy}-7-chloro-2H-isoquinolin-1-one] was tested, and the IC50 [1] was 100 to 1000 nM.
For `CCC(N)(CC)C1CCC(Oc2cc3cc[nH]c(=O)c3cc2Cl)CC1` (single isomer, unassigned) [Example 119, 6-{4-[1-Amino-1-ethyl-propyl]-cyclohexyloxy}-7-chloro-2H-isoquinolin-1-one], the IC50 [1] was 100 to 1000 nM.
For `CCCC(C)(N)C1CCC(Oc2cc3cc[nH]c(=O)c3cc2Cl)CC1` (single isomer, unassigned) [Example 124, 6-{4-[1-Amino-1-methyl-n-butyl]-cyclohexyloxy}-7-chloro-2H-isoquinolin-1-one], the “Selectivity against PKG” value [2] was >10 and the “Selectivity against PKA” value (recombinant human PKA) was >100.
In the case of `NC(C1CCC(Oc2cc3cc[nH]c(=O)c3cc2Cl)CC1)C1CC1` (single isomer, unassigned) [Example 132, 6-[4-(Amino-cyclopropyl-methyl)-cyclohexyloxy]-7-chloro-2H-isoquinolin-1-one], the “Selectivity against PKG” value [2] is reported as >10 and the “Selectivity against PKA” value (recombinant human PKA) is reported as >100.
In the case of `CC(N)(c1ccccc1)C1CCC(Oc2cc3cc[nH]c(=O)c3cc2Cl)CC1` (stereo not shown) [Example 34, 6-[4-(1-Amino-1-phenyl-ethyl)-cyclohexyloxy]-7-chloro-2H-isoquinolin-1-one], the “Selectivity against PKG” value [2] is reported as >10 and the “Selectivity against PKA” value (recombinant human PKA) is reported as >300.
With `CCC(N)[C@]1(c2ccc(C)c(OC)c2)CC[C@H](Oc2cc3cc[nH]c(=O)c3cc2Cl)CC1` (stereo partly drawn) [Example 64, cis-6-[4-(1-Amino-propyl)-4-(3-methoxy-4-methyl-phenyl)-cyclohexyloxy]-7-chloro-2H-isoquinolin-1-one] the “Selectivity against PKG” value [2] was >100 and the “Selectivity against PKA” value (recombinant human PKA) was >1000.
For `CCC(N)[C@]1(c2ccc(F)c(F)c2)CC[C@H](Oc2cc3cc[nH]c(=O)c3cc2C)CC1` (stereo partly drawn) [Example 65, cis-6-[4-(1-Amino-propyl)-4-(3,4-difluoro-phenyl)-cyclohexyloxy]-7-methyl-2H-isoquinolin-1-one], the pIC50 [1] was “+++++ (6.0≦pIC50<7.0)”.
For `CCC(N)[C@]1(c2ccc(F)c(F)c2)CC[C@H](Oc2c(F)cc3c(=O)[nH]ccc3c2C)CC1` (stereo partly drawn) [Example 67, cis-6-[4-(1-Amino-propyl)-4-(3,4-difluoro-phenyl)-cyclohexyloxy]-7-fluoro-5-methyl-2H-isoquinolin-1-one], the pIC50 [1] was “+++++ (6.0≦pIC50<7.0)”.
For `CCC(N)[C@]1(c2ccccc2)CC[C@H](Oc2cc3ccncc3cc2Cl)CC1` (stereo partly drawn) [Example 89, cis-1-[4-(7-Chloro-iso-quinolin-6-yloxy)-1-phenyl-cyclohexyl]-propylamine], the pIC50 [1] was “+++++ (6.0≦pIC50<7.0)”.
In the case of `CCC(N)[C@]1(c2ccccc2)CC[C@H](Oc2c(C)cc3cnccc3c2C)CC1` (stereo partly drawn) [Example 90, cis-1-[4-(5,7-Dimethyl-isoquinolin-6-yloxy)-1-phenyl-cyclohexyl]-propylamine], the pIC50 [1] is reported as “+++++ (6.0≦pIC50<7.0)”.
With `CCC(N)[C@]1(c2ccccc2)CC[C@H](Oc2ccc3cnccc3c2Cl)CC1` (stereo partly drawn) [Example 92, cis-1-[4-(5-Chloro-isoquinolin-6-yloxy)-1-phenyl-cyclohexyl]-propylamine] the pIC50 [1] was “+++++ (6.0≦pIC50<7.0)”.
`CCC(N)[C@]1(c2ccccc2)CC[C@H](Oc2cc3ccncc3cc2Br)CC1` (stereo partly drawn) [Example 94, cis-1-[4-(7-Bromo-isoquinolin-6-yloxy)-1-phenyl-cyclohexyl]-propylamine] was tested, and the pIC50 [1] was “+++++ (6.0≦pIC50<7.0)”.
`CCC(N)[C@]1(c2ccccc2)C[C@H]2C[C@@H]1CC2Oc1cc2cc[nH]c(=O)c2cc1Cl` (stereo partly drawn) [Example 101, 6-[(1R,4R,5R)-5-(1-Amino-propyl)-5-phenyl-bicyclo[2.2.1]hept-2-yloxy]-7-chloro-2H-isoquinolin-1-one] was tested, and the pIC50 [1] was “+++++ (6.0≦pIC50<7.0)”.
In the case of `CCC(N)[C@]1(c2ccccc2)CC[C@H](Oc2cc3ccnc(N)c3cc2Cl)CC1` (stereo partly drawn) [Example 111, cis-6-[4-(1-Amino-propyl)-4-phenyl-cyclohexyloxy]-7-chloro-isoquinolin-1-ylamine], the pIC50 [1] is reported as “++++++ (7.0≦pIC50<8.0)”.
`COCCC(N)[C@]1(c2ccc(F)cc2)CC[C@H](Oc2cc3cc[nH]c(=O)c3cc2Cl)CC1` (stereo partly drawn) [Example 115, cis-6-[4-(1-Amino-3-methoxy-propyl)-4-(4-fluoro-phenyl)-cyclohexyloxy]-7-chloro-2H-isoquinolin-1-one] was tested, and the pIC50 [1] was “+++++ (6.0≦pIC50<7.0)”.
`COc1ccc(C(C)(N)C2CCC(Oc3cc4cc[nH]c(=O)c4cc3Cl)CC2)cc1` (stereo not shown) [Example 117, 6-{4-[1-Amino-1-(4-methoxy-phenyl)-ethyl]-cyclohexyloxy}-7-chloro-2H-isoquinolin-1-one] was tested, and the “Selectivity against PKG” value [2] was >10 and the “Selectivity against PKA” value (recombinant human PKA) was >300.
